# Assay results: patent US20240352145A1, “EFFICACY OF ANTI-TROP-2-SN-38 ANTIBODY DRUG CONJUGATES FOR THERAPY OF TUMORS RELAPSED/REFRACTORY TO CHECKPOINT INHIBITORS” (Immunomedics, Inc., priority 2016, published 2024)
# T1: Trop-2 (Homo sapiens, UniProt P09758)
# T1 sequence (P09758 27-323): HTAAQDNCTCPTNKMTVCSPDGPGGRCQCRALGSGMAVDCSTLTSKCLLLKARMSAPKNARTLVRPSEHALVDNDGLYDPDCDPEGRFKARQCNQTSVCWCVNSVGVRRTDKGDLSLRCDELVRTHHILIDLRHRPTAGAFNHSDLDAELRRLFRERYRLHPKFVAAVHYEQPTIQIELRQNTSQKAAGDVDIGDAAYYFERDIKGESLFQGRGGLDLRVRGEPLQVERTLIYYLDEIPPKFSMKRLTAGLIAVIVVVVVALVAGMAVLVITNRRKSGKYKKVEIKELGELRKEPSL
# Assays:
# [1] = weekly x 4 doses; Camptosar package insert; cited from earlier work
# [2] = system: Capan-1 tumors; assay: Capan-1 xenograft therapy; type: in vivo, mouse; details: for average tumor size: day 35, 0.4 mg SN-38/kg; for tumor volume (TV): day 49, 0.4 mg/kg SN-38; for tumor-free mice at end of study: day 140
# Method: (§1) NCr female athymic nude (nu/nu) mice, 4 to 8 weeks old, and male Swiss-Webster mice, 10 weeks old, were purchased from Taconic Farms. Tolerability studies were performed in Cynomolgus monkeys (Macaca fascicularis; 2.5-4 kg male and female) by SNBL USA, Ltd. Animals were implanted subcutaneously with different human cancer cell lines. Tumor volume (TV) was determined by measurements in 2 dimensions using calipers, with volumes defined as: L×w^2/2, where L is the longest dimension of the tumor and w is the shortest. […] This dosing frequency reflected a consideration of the conjugate's serum half-life […], to allow a more continuous exposure to the ADC.
# (§2) Statistics—Growth curves are shown as percent change in initial TV over time. Statistical analysis of tumor growth was based on area under the curve (AUC). Profiles of individual tumor growth were obtained through linear-curve modeling. An f-test was employed to determine equality of variance between groups before statistical analysis of growth curves. A 2-tailed t-test was used to assess statistical significance between the various treatment groups and controls, except for the saline control, where a 1-tailed t-test was used (significance at P≤0.05). Statistical comparisons of AUC were performed only up to the time that the first animal within a group was euthanized due to progression.
# [3] = system: COLO 205 tumors; assay: COLO 205 xenograft therapy; type: in vivo; details: for tumor volume (TV): 0.4 mg/kg, q4dx8, 28-day treatment period
# [4] = animals given irinotecan; Goldenberg et al., 2014; cited from earlier work
# [5] = Irinotecan MTD and conversion in mice; type: in vivo, mouse
# [6] = system: MDA-MB-468 TNBC tumors; assay: MDA-MB-468 TNBC xenograft; type: in vivo, mouse; details: one animal each, tumors progressed to ~0.7 cm^3 on irinotecan
# [7] = system: human gastric carcinoma xenograft, NCI-N87; assay: NCI-N87 gastric carcinoma xenograft, Example 17; type: in vivo, mouse
# From the text: (§3) In Vivo Therapeutic Studies—NCr female athymic nude (nu/nu) mice, 4-8 weeks old, were purchased from Taconic Farms (Germantown, NY). NCI-N87 gastric tumor xenografts were established by harvesting cells from tissue culture and making a final cell suspension 1:1 in matrigel (BD Bioscience; San Jose, CA), with each mouse receiving a total of 1×10^7 cells s.c. in the right flank. For BxPC-3. xenografts of 1 g were harvested, and a tumor suspension made in HBSS to a concentration of 40% tumor w/v. This suspension was mixed 1:1 with matrigel for a final tumor suspension of 20% w/v. […] For IHC, tumors were allowed to grow to approximately 0.5 cm^3 before the mice were euthanized and the tumors removed, formalin-fixed and paraffin-embedded. For therapy studies, mice were randomized into treatment groups and therapy begun when tumor volumes were approximately 0.25 cm^3.
# (§4) Mice were euthanized and deemed to have succumbed to disease once tumors grew to greater than 1.0 cm^3 in size. […] Time to progression (TTP) was determined as time post-therapy initiation when the tumor grew more than 20% in size from its nadir.
# Survival studies were analyzed using Kaplan-Meier plots (log-rank analysis), using the Prism GraphPad Software (v4.03) software package (Advanced Graphics Software, Inc., Encinitas, CA).
# [8] = system: BxPC-3 human pancreatic tumors; assay: BxPC-3 xenograft therapy; type: in vivo, mouse; details: day 21; equivalent amounts of ADC
# Method: as §1, §2
# [9] = system: BxPC-3; assay: dsDNA breaks, γH2AX induction in BxPC-3; type: cell-based, human; details: BxPC-3, 20 μg/ml for 30 min
# Method: Assessment of Double-Stranded DNA Breaks In Vitro—For drug activity testing, BxPC-3 cells were seeded in 6-well plates at 5×10^5 cells/well and held at 37° C. overnight. […] The following morning, cells were trypsinized briefly, spun down, stained with Fixable Viability Stain 450 (BD Biosciences, San Jose, CA), washed with 1% BSA-PBS, and then fixed in 4% formalin for 15 min, washed again and permeabilized in 0.15% Triton-X100 in PBS for another 15 min. After washing twice with 1% BSA-PBS, cells were incubated with mouse anti-γH2AX-AF488 (EMD Millipore Corporation, Temecula, CA) for 45 min at 4° C. The signal intensity of γH2AX was measured by flow cytometry using a BD FACSCanto (BD Biosciences, San Jose, CA).
# [10] = system: NCI-N87 human gastric tumor xenografts; assay: Dose schedules and chronic dosing, NCI-N87 xenograft; type: in vivo, mouse; details: four cycles
# From the text: as §3, §4
# A similar dose schedule experiment was performed in mice bearing NCI-N87 human gastric tumor xenografts (not shown). […] Likewise, in terms of overall survival, while all three dose schedules provided a significant survival benefit when compared to untreated control (P<0.0001), there were no differences between any of these three different schedules.
# In all, four treatment cycles were administered to the animals.
# [11] = system: Calu-3; assay: Calu-3 xenograft therapy; type: in vivo, mouse; details: for tumor volume (TV): 0.04 mg SN-38/kg every 4 days x 4; for outcome: 0.4 mg/kg SN-38
# [12] = target: T1, Trop-2; assay: In vitro cell binding, multiple cell lines; parameters: endogenous in cells; host or cells: human cancer cell lines (ATCC)
# Method: In Vitro Cell Binding—LumiGLO Chemiluminescent Substrate System (KPL, Gaithersberg, MD) was used to detect antibody binding to cells. Briefly, cells were plated into a 96 black-well, flat-clear-bottom plate overnight. Antibodies were serially diluted 1:2 and added in triplicate, yielding a concentration range from 0.03 to 66.7 nM. After incubating for 1 h at 4° C., the media was removed and the cells washed with fresh cold media followed by the addition of a 1:20,000 dilution of goat-antihuman horseradish peroxidase-conjugated secondary antibody (Jackson Immunoresearch, West Grove, PA) for 1 h at 4° C. The plates were again washed before the addition of the LumiGLO reagent. Plates were read for luminescence using an Envision plate reader (Perkin Elmer, Boston MA). Data were analyzed by non-linear regression to determine the equilibrium dissociation constant (KD). Statistical comparisons of KD-values were made with Prism GraphPad Software (v4.03) (Advanced Graphics Software, Inc.; Encinitas, CA) using an F-Test on the best-fit curves for the data. Significance was set at P<0.05.
# [13] = system: BxPC-3; assay: ADCC activity of hRS7-ADC conjugates; type: cell-based, human; details: 33.3 nM; PBMC effector to target ratio 100:1
# From the text: PBMCs were purified from blood purchased from the Blood Center of New Jersey. A Trop-2-positive human pancreatic adenocarcinoma cell line (BxPC-3) was used as the target cell line with an effector to target ratio of 100:1.
# [14] = mouse, in vivo
# From the text: Pharmacokinetics—Naive female NCr nude (nu/nu) mice, 8-10 weeks old, were purchased from Taconic Farms (Germantown, NY). […] ELISA was utilized to determine serum concentrations of total hRS7 IgG by competing for the binding to an anti-hRS7 IgG idiotype antibody with a horseradish peroxidase conjugate of hRS7. […] Pharmacokinetic (PK) parameters were computed by noncompartmental analysis using Phoenix WinNonlin software (version 6.3; Pharsight Corp., Mountainview, CA).
# [15] = in vivo; cited from earlier work
# [16] = system: pancreatic cancer; assay: PAM4 clinical trial, 90Y-hPAM4 with gemcitabine; type: in vivo, human; details: 22 CT-assessable patients
# Method: In the ongoing PAM4 clinical trials, a four week clinical treatment cycle is performed. In week 1, subjects are administered a dose of ^111In-hPAM4, followed at least 2 days later by gemcitabine dose. In weeks 2, 3 and 4, subjects are administered a ^90Y-hPAM4 dose, followed at least 2 days later by gemcitabine (200 mg/m^2). Escalation started at 3×6.5 mCi/m^2. The maximum tolerated dose in front-line pancreatic cancer patients was 3×15 mCi/m^2 (hematologic toxicity is dose-limiting).
# [17] = system: Capan-1; assay: Combination 90Y-hPAM4 RAIT + ADC, Capan-1 xenograft; type: in vivo, mouse
# From the text: Objective responses occurred in most animals, but they were more robust in both of the combination groups as compared to each agent given alone. […] These studies provide the first evidence that combined radioimmunotherapy and ADC enhances efficacy at safe doses.
# [18] = 0.2 mg/kg SN-38 twice weekly x 4 weeks
molecule,measurement,setting,value
"CCc1c2c(nc3ccc(OC(=O)N4CCC(N5CCCCC5)CC4)cc13)-c1cc3c(c(=O)n1C2)COC(=O)[C@]3(O)CC [irinotecan, 7-ethyl-10-[4-(1-piperidino)-1-piperidino]carbonyloxycamptothecin]",grades 3 and 4 late diarrhea,[1],31%
same,average tumor size,[2],1.78±0.62 cm^3
same,efficacy of irinotecan at MTD,"[3]; 24 mg SN-38/kg, q2dx5",as effective as hRS7-CL2-SN-38
same,share of total serum SN-38 that is glucuronidated,[4],> 50%
same,MTD,"[5]; IV, single injection",40 mg/kg
same,MTD,[5]; q2dx5,24 mg SN-38/kg
same,decrease in tumor size after re-treatment,[6],23%
hA20-CL2-SN-38 [reference compound],tumor volume (TV),[2],0.80±0.68 cm^3
same,tumor volume (TV),[3],1.19±0.59 cm^3
hA20-CL2A-SN-38 [reference compound],median survival time (MST),[7]; 14 days for saline control,24 days
same,mean time to progression (TTP),"[7]; mouse, in vivo",4.1 ± 2.0 days
same,tumor volume (TV),[8],1.05±0.73 cm^3
same,"Percent Positive, γH2AX","[9]; untreated 18.8 ± 6.3, listed as hA20-SN-38",12.7 ± 2.4%
same,"Mean Fluorescence Intensity, γH2AX",[9]; untreated 2516 ± 191,2246 ± 58
same,tumor-free mice at end of study,[2]; [18],20%
same,TTP,"[10]; 0.5 mg once a week for two weeks, one week off",4.7 ± 2.2 days
same,median survival,[10]; chronic dosing,21 days
hLL2-CL2-SN-38 [reference compound],tumor volume (TV),[11],0.80±0.91 cm^3
same,outcome,[11],tumors regrew
hRS7-CL2-SN-38,tumor growth vs untreated and hA20-CL2A-SN-38,[2]; [18],significantly inhibited tumor growth
same,average tumor size,[2],0.04±0.05 cm^3
same,tumor volume (TV),[2],0.17±0.18 cm^3
same,tumor-free mice at end of study,[2]; [18],40%
same,tumor growth vs untreated and hA20-CL2A-SN-38,[3]; 0.4 mg/kg SN-38 twice weekly x 4 weeks,significantly inhibited tumor growth
same,tumor volume (TV),[3],0.16±0.09 cm^3
same,tumor volume (TV),[11],0.14±0.22 cm^3
same,outcome,[11],remained tumor-free until the end of the study on day 147
hRS7-NEM [reference compound],KD,[12],sub-nanomolar range
same,specific lysis (ADCC),[13],no difference between hRS7-NEM and sacituzumab govitecan
same,"half-life, Cmax, AUC, clearance, MRT vs parental hRS7",[14],no significant differences
hRS7-Pro-2-PDox,specific lysis (ADCC),[13],not significantly different
veltuzumab,immunogenicity in subjects,[15],less immunogenic in subjects than rituximab
"^90Y-hPAM4 (conjugate, chains of the INN, looked up, 90Y radiolabel) VH: QVQLQQSGAEVKKPGASVKVSCEASGYTFPSYVLHWVKQAPGQGLEWIGYINPYNDGTQYNEKFKGKATLTRDTSINTAYMELSRLRSDDTAVYYCARGFGGSYGFAYWGQGTLVTVSS VL: DIQLTQSPSSLSASVGDRVTMTCSASSSVSSSYLYWYQQKPGKAPKLWIYSTSNLASGVPARFSGSGSGTDFTLTISSLQPEDSASYFCHQWNRYPYTFGGGTRLEIK",disease control rate (CR+PR+SD),[16],68%
same,partial responses,[16],23%
same,stabilization as best response,[16],45%
same,tumor-free mice after 20 weeks,"[17]; 75 μCi 90Y-hPAM4 level, ADC alone, or their combination, n=10",1 of 10
same,tumor-free animals,"[17]; 130 μCi 90Y-hPAM4 level, n=10",5 of 10
"hPAM4 (antibody, chains of the INN, looked up, V domains shown) VH: QVQLQQSGAEVKKPGASVKVSCEASGYTFPSYVLHWVKQAPGQGLEWIGYINPYNDGTQYNEKFKGKATLTRDTSINTAYMELSRLRSDDTAVYYCARGFGGSYGFAYWGQGTLVTVSS VL: DIQLTQSPSSLSASVGDRVTMTCSASSSVSSSYLYWYQQKPGKAPKLWIYSTSNLASGVPARFSGSGSGTDFTLTISSLQPEDSASYFCHQWNRYPYTFGGGTRLEIK",anti-tumor activity of unconjugated antibodies,[17]; given alone,Neither unconjugated hPAM4 nor hRS7 antibodies had anti-tumor activity
